Peptide text beside a SMILES is read from it.
Columns and labels:
HLA-A2.1 molecule = target: T1, HLA-A2.1 molecule (Homo sapiens, UniProt P04439, D140Y/D185E/D98H/E176V/E277Q/G131W/G231S/I119V/I121R/I166T/I218V/L300P/L318F/N151K/N90K/P208A/P217A/Q86G/Q94H/R138H/R169H/T345S); test: HLA-A2.1 binding/stabilization assay on TAP- T2 cells; settings: time required for a 50% reduction in mean fluorescence intensity
T1 construct: endogenous in cells; host or cells: human T2 cells (TAP-, HLA-A2.1+)
Method: The relative avidity was measured as previously described (25). Briefly, T2 cells were incubated overnight at 37° C. in RPMI supplemented with human β2-microglobulin (100 ng/ml) (Sigma, St. Louis, Mo.) in the absence (negative control) or presence of the test peptide or the reference peptide 4761[…]484 (SEQ ID NO:7) of HIV-1 reverse transcriptase at various final peptide concentrations (0.1-100 μM). Cells were incubated with Brefeldin A (0.5 μg/ml) for one hour and subsequently stained with a saturating concentration of monoclonal antibody BB7.2 for 30 minutes at +4° C. followed by washing and a second incubation with a goat antibody to mouse Ig (Fab′)2 conjugated to FITC (Caltag, South San Francisco). Cells were then washed, fixed with 1% paraformaldehyde and analyzed in a FACs Calibur cytofluorimeter (Becton & Dickinson, San Jose, Calif.). The mean fluorescence intensity of each concentration minus that of cells without peptide was used as an estimate of peptide binding. […] Dissociation of the test peptide from the HLA-A2.1 molecule reflects the half-life of fluorescence intensity of the peptide/MHC complex over time. The half-life of the complex (DC50) refers to the time (hours) required for a 50% reduction of the TO mean fluorescence intensity (25). Synthetic peptides 571[…]579 (SEQ ID NO:5) of carcinoembryonic antigen (CEA) and 476[…]486 (SEQ ID NO:6) of melanoma antigen gp100 were used as internal controls to account for inter-tests variability and for consistency with previously reported RA and DC50 measures (25).
Since the immunogenicity of MHC Class I-restricted peptides reflects to some degree their binding and stabilizing capacity for MHC Class I molecules (31-33) Applicant sought direct proof of the strength of interaction between the two hTRT peptides and the HLA-A2.1 molecule in a conventional binding/stabilization assay that uses the antigen-transporting deficient (TAP-) HLA-A2.1+ human T2 cells. […] The stability of each peptide bound to HLA-A2.1 was measured as the half-life of the complex

[1] = test system: hTRT+/HLA-A2+ melanoma cell line 624; test: Normal donor CTL against p572(Y), lysis of melanoma 624; assay type: cell-based, human; settings: normal blood donor PBMC immunized in vitro
Description: FIG. 6. […] The results are expressed as percent lysis and show by comparison lysis of 624 melanoma cells, and HLA-A2+T2 target cells pulsed with the p572(Y) and p572 wild type peptides, respectively. Nonspecific lysis of T2 cells is shown as a control.
CTL generated against p572 were also able to lyze the hTRT+/HLA-A2+ melanoma cell line 624. The antigen-recognition activity of T cells is intimately linked with recognition of MHC (HLA in humans) molecules.

[2] = test system: HLA-A2+T2 target cells pulsed with peptide; test: In vitro immunization of normal HLA-A2+ donor PBMC with Y-modified hTRT peptides; assay type: cell-based, human
Description: PBMC from three normal HLA-A2+ individuals were immunized with the Y-modified peptides. The results are summarized as follows (Table VII).

HLA-A2+ CD34+ cells = settings: reference 24; cited from earlier work
[3] = target: T2, HLA-A2.1 molecule on TAP-deficient human T2 cells (human); test: T2 cell HLA-A2.1 binding/stabilization assay, BB7.2 flow cytometry; ratio of peptide concentration giving 20% of maximal binding, against reference peptide [..] (SEQ ID NO:7) of HIV-1 reverse transcriptase; lower is stronger
T2 construct: MHC class I molecule on the surface of T2 cells; also called MHC Class I
Method: Briefly, T2 cells were incubated overnight at 37° C. in RPMI supplemented with human β2-microglobulin (100 ng/ml) (Sigma, St. Louis, Mo.) in the absence (negative control) or presence of the test peptide or the reference peptide 476_1[…]$484$ (SEQ ID NO:7) of HIV-1 reverse transcriptase at various final peptide concentrations (0.1-100 µM). Cells were incubated with Brefeldin A (0.5 µg/ml) for one hour and subsequently stained with a saturating concentration of monoclonal antibody BB7.2 for 30 minutes at +4° C. followed by washing and a second incubation with a goat antibody to mouse Ig (Fab')2 conjugated to FITC (Caltag, South San Francisco). Cells were then washed, fixed with 1% paraformaldehyde and analyzed in a FACs Calibur cytofluorimeter (Becton & Dickinson, San Jose, Calif.). The mean fluorescence intensity of each concentration minus that of cells without peptide was used as an estimate of peptide binding. […] Dissociation of the test peptide from the HLA-A2.1 molecule reflects the half-life of fluorescence intensity of the peptide/MHC complex over time. The half-life of the complex (DC50) refers to the time (hours) required for a 50% reduction of the TO mean fluorescence intensity (25). Synthetic peptides $571$[…]$579$ (SEQ ID NO:5) of carcinoembryonic antigen (CEA) and $476$[…]$486$ (SEQ ID NO:6) of melanoma antigen gp100 were used as internal controls to account for intertests variability and for consistency with previously reported RA and DC50 measures (25).
Since the immunogenicity of MHC Class I-restricted peptides reflects to some degree their binding and stabilizing capacity for MHC Class I molecules (31-33) Applicant sought direct proof of the strength of interaction between the two hTRT peptides and the HLA-A2.1 molecule in a conventional binding/stabilization assay that uses the antigen-transporting deficient (TAP-) HLA-A2.1+ human T2 cells.

Molecule: VLYRYGSFSV (listed as Homo sapiens) [gp100 p476, peptide of human melanoma antigen gp100, internal control]
- DC50 (half-life of peptide/HLA-A2.1 complex) (HLA-A2.1 molecule): 4 to 6 h

Molecule: RLFFYRKSV [p572 wild type]
- lysis of melanoma cell line 624 in words [1]: able to lyze

Molecule: YLARCALFV (listed as Homo sapiens) [p152(Y), Y-modified hTRT peptide p152]
- CTL against target cells pulsed with p152(Y) ([2]; donor 218): 7%
- CTL against target cells pulsed with p152(Y) ([2]; donor 219): 2%
- CTL against target cells pulsed with p152(Y) ([2]; donor 222): 1%

Molecule: CC(C)C[C@H](NC(=O)[C@H](Cc1ccccc1)NC(=O)[C@H](CC(=O)O)NC(=O)[C@H](CC(=O)O)NC(=O)[C@@H](NC(=O)[C@H](CC(C)C)NC(=O)[C@@H](N)CCCNC(=N)N)C(C)C)C(=O)N[C@@H](CC(C)C)C(=O)N[C@H](C(=O)O)C(C)C [p865] (H-RLVDDFLLV-OH)
- DC50 (half-life of peptide/HLA-A2.1 complex) (HLA-A2.1 molecule): 2 to 4 h

Molecule: YLFFYRKSV (listed as Homo sapiens) [p572(Y), Y-modified hTRT peptide p572]
- lysis of melanoma cell line 624 in words [1]: kill melanoma cells 624
- CTL against target cells pulsed with p572(Y) ([2]; donor 218): 48-50%
- CTL against target cells pulsed with p572 wild type ([2]; donor 218): 26-46%
- CTL against target cells pulsed with p572(Y) ([2]; donor 219): 4%
- CTL against target cells pulsed with p572(Y) ([2]; donor 222): 27%
- CTL against target cells pulsed with p572 wild type ([2]; donor 222): 5%

Molecule: CC[C@H](C)[C@H](N)C(=O)N[C@@H](CC(C)C)C(=O)N[C@@H](C)C(=O)N[C@@H](CCCCN)C(=O)N[C@@H](Cc1ccccc1)C(=O)N[C@@H](CC(C)C)C(=O)N[C@@H](Cc1c[nH]cn1)C(=O)N[C@@H](Cc1c[nH]c2ccccc12)C(=O)N[C@@H](CC(C)C)C(=O)O [p540] (H-ILAKFLHWL-OH)
- DC50 (half-life of peptide/HLA-A2.1 complex) (HLA-A2.1 molecule): 4 to 6 h
- lysis of HLA-A2+ CD34+ cells by CTL raised in normal individuals (HLA-A2+ CD34+ cells): did not lyse

Molecule: YELLRSFFYV (listed as Homo sapiens) [p555(Y), Y-modified hTRT peptide p555]
- CTL against target cells pulsed with p555(Y) ([2]; donor 218): 4%
- CTL against target cells pulsed with p555(Y) ([2]; donor 219): 8%
- CTL against target cells pulsed with p555(Y) ([2]; donor 222): 1%

B1: hTRT p540 synthetic peptide (residues 540-548 of human telomerase reverse transcriptase) (peptide)
peptide: ILAKFLHWL
notes: Synthetic 9mer, bought from the Biopolymer Synthesis Center (CalTech)
- Relative Avidity (RA) [3]: 2.9

Molecule: VLYRYGSFSV (bought from Neosystem) [gp100 p476 synthetic peptide of human melanoma antigen gp100]
- Relative Avidity (RA) [3]: 9

B2: hTRT p865 synthetic peptide (residues 865-873 of human telomerase reverse transcriptase) (peptide)
peptide: RLVDDFLLV
notes: as for B1
- Relative Avidity (RA) [3]: 2.5
